# Assay results as given in PubChem BioAssay AID242 (DTP/NCI, 2004).
# “And” between values parts separate entries of the source, which are not always exact repeats. Equal entries are not always repeated. Toxic doses and inconclusive results are not listed.
# System: BDF1 mice, Lymphoma 8 ip, survival T/C
# Experiment: NCI In Vivo Anticancer Drug Screen. Data for tumor model Lymphoma 8 (intraperitoneal) in B6D2F1 (BDF1) mice
# Settings: higher = longer survival
# Procedure: The antitumor activity of compounds was measured in mice bearing transplantable tumors. Survival or tumor size were measured and the results are expressed as the measurement made in the treated group (T) divided by the measurement made in the vehicle treated control group (C). The tumor model used in this assay is Lymphoma 8 (intraperitoneal) in B6D2F1 (BDF1) mice
# [1] = endpoint: survival time, mean or median, dose: 12.5 mg/kg/injection, schedule: Q01DX015 (ip), vehicle: carboxymethylcellulose (CMC)
# [2] = endpoint: survival time, mean or median, dose: 25.0 mg/kg/injection, schedule: Q01DX015 (ip), vehicle: carboxymethylcellulose (CMC)
# [3] = endpoint: survival time, mean or median, dose: 50.0 mg/kg/injection, schedule: Q01DX015 (ip), vehicle: carboxymethylcellulose (CMC)
# [4] = endpoint: survival time, mean or median, dose: 100.0 mg/kg/injection, schedule: Q01DX015 (ip), vehicle: carboxymethylcellulose (CMC)
# [5] = endpoint: survival time, mean or median, dose: 200.0 mg/kg/injection, schedule: Q01DX015 (ip), vehicle: carboxymethylcellulose (CMC)
# [6] = endpoint: survival time, mean or median, dose: 0.5 mg/kg/injection, schedule: Q01DX015 (ip), vehicle: carboxymethylcellulose (CMC)
# [7] = endpoint: survival time, mean or median, dose: 1.0 mg/kg/injection, schedule: Q01DX015 (ip), vehicle: carboxymethylcellulose (CMC)
# [8] = endpoint: survival time, mean or median, dose: 125.0 mg/kg/injection, schedule: Q01DX010 (ip), vehicle: saline
# [9] = endpoint: survival time, mean or median, dose: 250.0 mg/kg/injection, schedule: Q01DX010 (ip), vehicle: saline
# [10] = endpoint: survival time, mean or median, dose: 5.0 mg/kg/injection, schedule: Q01DX010 (ip), vehicle: saline
# [11] = endpoint: survival time, mean or median, dose: 1.0 mg/kg/injection, schedule: Q01DX010 (ip), vehicle: saline
# [12] = endpoint: survival time, mean or median, dose: 0.5 mg/kg/injection, schedule: Q01DX010 (ip), vehicle: saline
# [13] = endpoint: survival time, mean or median, dose: 4.0 mg/kg/injection, schedule: Q01DX010 (ip), vehicle: saline
compound,measurement,setting,value
CC(Cl)CN(Cc1cc(O)c(CN(CC(C)Cl)CC(C)Cl)cc1O)CC(C)Cl (stereo not given),T/C,"endpoint: survival time, mean or median, dose: 62.5 mg/kg/injection, schedule: Q01DX015 (ip), vehicle: carboxymethylcellulose (CMC)",100 % of control
same,T/C,"endpoint: survival time, mean or median, dose: 125.0 mg/kg/injection, schedule: Q01DX015 (ip), vehicle: carboxymethylcellulose (CMC)",95 % of control
same,T/C,"endpoint: survival time, mean or median, dose: 250.0 mg/kg/injection, schedule: Q01DX015 (ip), vehicle: carboxymethylcellulose (CMC)",94 % of control
same,T/C,"endpoint: survival time, mean or median, dose: 500.0 mg/kg/injection, schedule: Q01DX015 (ip), vehicle: carboxymethylcellulose (CMC)",88 % of control and 91 % of control
same,T/C,"endpoint: survival time, mean or median, dose: 750.0 mg/kg/injection, schedule: Q01DX015 (ip), vehicle: carboxymethylcellulose (CMC)",90 % of control
same,T/C,"endpoint: survival time, mean or median, dose: 1000.0 mg/kg/injection, schedule: Q01DX015 (ip), vehicle: carboxymethylcellulose (CMC)",90 % of control
N#CCSc1ncnc2nc[nH]c12,T/C,"endpoint: survival time, mean or median, dose: 15.0 mg/kg/injection, schedule: Q01DX010 (ip), vehicle: saline",100 % of control
same,T/C,"endpoint: survival time, mean or median, dose: 30.0 mg/kg/injection, schedule: Q01DX010 (ip), vehicle: saline",95 % of control and 104 % of control
same,T/C,"endpoint: survival time, mean or median, dose: 60.0 mg/kg/injection, schedule: Q01DX010 (ip), vehicle: saline",100 % of control
same,T/C,"endpoint: survival time, mean or median, dose: 120.0 mg/kg/injection, schedule: Q01DX010 (ip), vehicle: saline",100 % of control
Cn1c(O)c(N=NC(N)=S)c2ccccc21,T/C,"endpoint: survival time, mean or median, dose: 1.5 mg/kg/injection, schedule: Q01DX015 (ip), vehicle: carboxymethylcellulose (CMC)",100 % of control
same,T/C,"endpoint: survival time, mean or median, dose: 3.0 mg/kg/injection, schedule: Q01DX015 (ip), vehicle: carboxymethylcellulose (CMC)",98 % of control
same,T/C,"endpoint: survival time, mean or median, dose: 6.0 mg/kg/injection, schedule: Q01DX015 (ip), vehicle: carboxymethylcellulose (CMC)",99 % of control
same,T/C,[1],95 % of control
same,T/C,[2],97 % of control
same,T/C,[3],124 % of control
same,T/C,[4],117 % of control
same,T/C,[5],115 % of control
NC(=O)c1cn(C2OC(CO)C(O)C2O)c2ncnc(N)c12 (stereo not given),T/C,[6],106 % of control
same,T/C,[7],116 % of control
same,T/C,"endpoint: survival time, mean or median, dose: 2.0 mg/kg/injection, schedule: Q01DX015 (ip), vehicle: carboxymethylcellulose (CMC)",94 % of control
CCOC(N)=O,T/C,[8],105 % of control
same,T/C,[9],100 % of control
same,T/C,"endpoint: survival time, mean or median, dose: 500.0 mg/kg/injection, schedule: Q01DX010 (ip), vehicle: saline",100 % of control
Oc1cc(CN(CCCl)CCCl)c(O)cc1CN(CCCl)CCCl,T/C,"endpoint: survival time, mean or median, dose: 0.63 mg/kg/injection, schedule: Q01DX010 (ip), vehicle: saline",104 % of control and 107 % of control
same,T/C,"endpoint: survival time, mean or median, dose: 1.25 mg/kg/injection, schedule: Q01DX010 (ip), vehicle: saline",104 % of control
same,T/C,[10],103 % of control and 120 % of control
CCN(CC)c1ccc2cc3ccc(=[N+](CC)CC)cc-3oc2c1,T/C,[11],96 % of control
CCCCOP(=S)(N1CC1)N1CC1,T/C,[12],100 % of control
same,T/C,[11],103 % of control
same,T/C,"endpoint: survival time, mean or median, dose: 2.0 mg/kg/injection, schedule: Q01DX010 (ip), vehicle: saline",106 % of control
same,T/C,[13],103 % of control
O=C(O)c1[nH]c(=O)[nH]c(=O)c1F,T/C,"endpoint: survival time, mean or median, dose: 12.0 mg/kg/injection, schedule: Q01DX015 (ip), vehicle: carboxymethylcellulose (CMC)",99 % of control
same,T/C,[1],98 % of control
Clc1ccc2c(Cl)ncnc2c1,T/C,[2],95 % of control
same,T/C,[3],88 % of control
CN(N=O)C(=O)NC(C=O)C(O)C(O)C(O)CO (stereo not given),T/C,"endpoint: survival time, mean or median, dose: 12.5 mg/kg/injection, schedule: Q01DX010 (ip), vehicle: saline",96 % of control
same,T/C,"endpoint: survival time, mean or median, dose: 25.0 mg/kg/injection, schedule: Q01DX008 (ip), vehicle: saline",115 % of control
same,T/C,"endpoint: survival time, mean or median, dose: 25.0 mg/kg/injection, schedule: Q01DX010 (ip), vehicle: saline",100 % of control
same,T/C,"endpoint: survival time, mean or median, dose: 50.0 mg/kg/injection, schedule: Q01DX008 (ip), vehicle: saline",111 % of control
same,T/C,"endpoint: survival time, mean or median, dose: 50.0 mg/kg/injection, schedule: Q01DX010 (ip), vehicle: saline",121 % of control
same,T/C,"endpoint: survival time, mean or median, dose: 100.0 mg/kg/injection, schedule: Q01DX008 (ip), vehicle: saline",115 % of control
same,T/C,"endpoint: survival time, mean or median, dose: 100.0 mg/kg/injection, schedule: Q01DX010 (ip), vehicle: saline",121 % of control
CS(=O)(=O)OCCN(CCOS(C)(=O)=O)c1ccc(N=O)cc1,T/C,"endpoint: survival time, mean or median, dose: 0.25 mg/kg/injection, schedule: Q01DX010 (ip), vehicle: saline",121 % of control
same,T/C,[12],110 % of control
same,T/C,"endpoint: survival time, mean or median, dose: 63.0 micrograms/kg/injection, schedule: Q01DX010 (ip), vehicle: saline",113 % of control
same,T/C,"endpoint: survival time, mean or median, dose: 125.0 micrograms/kg/injection, schedule: Q01DX010 (ip), vehicle: saline",120 % of control
same,T/C,"endpoint: survival time, mean or median, dose: 500.0 micrograms/kg/injection, schedule: Q01DX010 (ip), vehicle: saline",123 % of control
COc1ccc(C[n+]2cc([O-])on2)cc1,T/C,[1],99 % of control
same,T/C,[2],106 % of control
same,T/C,[3],100 % of control
same,T/C,[4],113 % of control
Nc1nc(SCc2ccccn2)c2[nH]cnc2n1,T/C,[1],98 % of control
same,T/C,[2],96 % of control
same,T/C,[4],104 % of control
CCCSc1ncnc2nc[nH]c12,T/C,"endpoint: survival time, mean or median, dose: 31.3 mg/kg/injection, schedule: Q01DX010 (ip), vehicle: saline",100 % of control and 113 % of control
same,T/C,"endpoint: survival time, mean or median, dose: 62.5 mg/kg/injection, schedule: Q01DX010 (ip), vehicle: saline",95 % of control and 100 % of control
same,T/C,[8],95 % of control and 104 % of control
same,T/C,[9],86 % of control
O=c1cnn(C2OC(CO)C(O)C2O)c(=O)[nH]1 (stereo not given),T/C,"endpoint: survival time, mean or median, dose: 200.0 mg/kg/injection, schedule: Q01DX008 (ip), vehicle: saline",115 % of control
same,T/C,"endpoint: survival time, mean or median, dose: 800.0 mg/kg/injection, schedule: Q01DX008 (ip), vehicle: saline",96 % of control
Nc1ccc(OC(=O)Oc2ccc(N)cc2)cc1,T/C,"endpoint: survival time, mean or median, dose: 25.0 mg/kg/injection, schedule: Q01DX015 (ip), vehicle: saline",105 % of control
same,T/C,"endpoint: survival time, mean or median, dose: 50.0 mg/kg/injection, schedule: Q01DX015 (ip), vehicle: saline",91 % of control
same,T/C,"endpoint: survival time, mean or median, dose: 100.0 mg/kg/injection, schedule: Q01DX015 (ip), vehicle: saline",111 % of control
same,T/C,"endpoint: survival time, mean or median, dose: 200.0 mg/kg/injection, schedule: Q01DX015 (ip), vehicle: saline",106 % of control
N=C(N)SCc1c2ccccc2c(CSC(=N)N)c2ccccc12,T/C,"endpoint: survival time, mean or median, dose: 2.5 mg/kg/injection, schedule: Q01DX010 (ip), vehicle: saline",106 % of control and 121 % of control
same,T/C,[10],113 % of control
same,T/C,"endpoint: survival time, mean or median, dose: 20.0 mg/kg/injection, schedule: Q01DX010 (ip), vehicle: saline",113 % of control and 114 % of control
CC(=O)NC1=C(N2CC2)C(=O)C(NC(C)=O)=C(N2CC2)C1=O,T/C,[6],174 % of control
same,T/C,[7],150 % of control
N[C@@H](Cc1ccc(N(CCCl)CCCl)cc1)C(=O)O,T/C,"endpoint: survival time, mean or median, dose: 4.0 mg/kg/injection, schedule: Q01DX015 (ip), vehicle: carboxymethylcellulose (CMC)",91 % of control
Cc1cc2nc3c(=O)[nH]c(=O)nc-3n(CC(O)C(O)C(O)C(O)CO)c2cc1C (stereo not given),T/C,[3],90 % of control
same,T/C,[5],87 % of control
NC(Cc1c[nH]c2ccc(N(CCCl)CCCl)cc12)C(=O)O (stereo not given),T/C,[12],92 % of control
same,T/C,[11],103 % of control
same,T/C,[13],103 % of control
CC(C)CNS(=O)(=O)c1ncnc2nc[nH]c12,T/C,"endpoint: survival time, mean or median, dose: 18.8 mg/kg/injection, schedule: Q01DX015 (ip), vehicle: carboxymethylcellulose (CMC)",114 % of control
same,T/C,"endpoint: survival time, mean or median, dose: 37.5 mg/kg/injection, schedule: Q01DX015 (ip), vehicle: carboxymethylcellulose (CMC)",99 % of control
same,T/C,"endpoint: survival time, mean or median, dose: 75.0 mg/kg/injection, schedule: Q01DX015 (ip), vehicle: carboxymethylcellulose (CMC)",96 % of control
NC(=O)c1[nH]nc(C2OC(CO)C(O)C2O)c1O (stereo not given),T/C,"endpoint: median survival time, dose: 1.56 mg/kg/injection, schedule: Q04DX003 (ip), vehicle: saline",100 % of control
same,T/C,"endpoint: median survival time, dose: 2.59 mg/kg/injection, schedule: Q04DX003 (ip), vehicle: saline",103 % of control
same,T/C,"endpoint: median survival time, dose: 4.32 mg/kg/injection, schedule: Q04DX003 (ip), vehicle: saline",103 % of control
same,T/C,"endpoint: median survival time, dose: 7.2 mg/kg/injection, schedule: Q04DX003 (ip), vehicle: saline",104 % of control
same,T/C,"endpoint: median survival time, dose: 12.0 mg/kg/injection, schedule: Q04DX003 (ip), vehicle: saline",122 % of control
same,T/C,"endpoint: median survival time, dose: 20.0 mg/kg/injection, schedule: Q04DX003 (ip), vehicle: saline",111 % of control
